Results: ChEMBL document CHEMBL6127058, “Overview of the PRMT6 modulators in cancer treatment: Current progress and emerged opportunity” (Eur J Med Chem, 2024)
Blank lines part the entries; values can stand above or below the compound they belong to.

Legend:
[1] = biological target: T1, Protein arginine N-methyltransferase 1 (Homo sapiens, UniProt Q99873); assay: Inhibition of PRMT1 (unknown origin) by TR-FRET analysis
[2] = biological target: T1, Protein arginine N-methyltransferase 1; assay: Inhibition of PRMT1 (unknown origin)
[3] = biological target: Protein arginine N-methyltransferase 8 (Homo sapiens, UniProt Q9NR22); assay: Inhibition of PRMT8 (unknown origin)
[4] = biological target: T2, Histone-arginine methyltransferase CARM1 (Homo sapiens, UniProt Q86X55); assay: Inhibition PRMT4 (unknown origin)
T2 sequence (Q86X55 whole entry): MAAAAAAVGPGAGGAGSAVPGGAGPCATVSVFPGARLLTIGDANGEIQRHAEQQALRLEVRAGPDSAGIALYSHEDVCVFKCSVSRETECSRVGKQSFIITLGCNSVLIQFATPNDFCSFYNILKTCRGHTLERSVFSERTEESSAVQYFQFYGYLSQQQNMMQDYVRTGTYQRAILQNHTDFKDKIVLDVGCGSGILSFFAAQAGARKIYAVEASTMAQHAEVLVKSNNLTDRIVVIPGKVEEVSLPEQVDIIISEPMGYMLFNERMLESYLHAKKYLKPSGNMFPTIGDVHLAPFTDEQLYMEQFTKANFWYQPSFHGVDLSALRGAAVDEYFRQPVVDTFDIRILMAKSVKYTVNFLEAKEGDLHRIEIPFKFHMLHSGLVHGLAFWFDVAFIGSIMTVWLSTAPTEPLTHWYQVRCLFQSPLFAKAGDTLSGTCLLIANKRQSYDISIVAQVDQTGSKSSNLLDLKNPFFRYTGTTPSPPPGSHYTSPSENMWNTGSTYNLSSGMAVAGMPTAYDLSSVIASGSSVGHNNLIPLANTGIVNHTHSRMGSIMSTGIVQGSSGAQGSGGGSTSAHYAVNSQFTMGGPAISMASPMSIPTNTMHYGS

[5] = biological target: Protein arginine N-methyltransferase 6 (Homo sapiens, UniProt Q96LA8); assay: Inhibition of PRMT6 (unknown origin)
Protein arginine N-methyltransferase 6, sequence (Q96LA8 whole entry): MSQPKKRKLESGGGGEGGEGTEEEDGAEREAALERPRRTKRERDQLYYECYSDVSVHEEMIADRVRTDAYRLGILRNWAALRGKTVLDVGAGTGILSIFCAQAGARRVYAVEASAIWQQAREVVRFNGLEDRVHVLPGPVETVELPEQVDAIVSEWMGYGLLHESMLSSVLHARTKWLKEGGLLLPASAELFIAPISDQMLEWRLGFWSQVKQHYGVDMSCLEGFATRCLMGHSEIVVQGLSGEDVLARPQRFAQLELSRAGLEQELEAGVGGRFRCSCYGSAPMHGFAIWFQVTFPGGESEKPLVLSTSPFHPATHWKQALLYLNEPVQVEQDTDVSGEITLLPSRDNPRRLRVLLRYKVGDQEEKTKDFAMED

T1 sequence (Q99873 whole entry): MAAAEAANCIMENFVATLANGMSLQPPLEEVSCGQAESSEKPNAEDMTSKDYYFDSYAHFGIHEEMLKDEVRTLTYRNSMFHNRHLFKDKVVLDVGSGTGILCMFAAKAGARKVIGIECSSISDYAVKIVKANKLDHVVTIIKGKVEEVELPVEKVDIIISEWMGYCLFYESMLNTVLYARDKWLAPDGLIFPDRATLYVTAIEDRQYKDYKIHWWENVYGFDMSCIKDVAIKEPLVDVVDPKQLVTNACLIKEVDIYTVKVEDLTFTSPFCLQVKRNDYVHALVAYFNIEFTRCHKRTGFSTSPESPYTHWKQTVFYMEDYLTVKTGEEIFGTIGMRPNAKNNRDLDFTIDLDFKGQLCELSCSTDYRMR
Protein arginine N-methyltransferase 8, sequence (Q9NR22 whole entry): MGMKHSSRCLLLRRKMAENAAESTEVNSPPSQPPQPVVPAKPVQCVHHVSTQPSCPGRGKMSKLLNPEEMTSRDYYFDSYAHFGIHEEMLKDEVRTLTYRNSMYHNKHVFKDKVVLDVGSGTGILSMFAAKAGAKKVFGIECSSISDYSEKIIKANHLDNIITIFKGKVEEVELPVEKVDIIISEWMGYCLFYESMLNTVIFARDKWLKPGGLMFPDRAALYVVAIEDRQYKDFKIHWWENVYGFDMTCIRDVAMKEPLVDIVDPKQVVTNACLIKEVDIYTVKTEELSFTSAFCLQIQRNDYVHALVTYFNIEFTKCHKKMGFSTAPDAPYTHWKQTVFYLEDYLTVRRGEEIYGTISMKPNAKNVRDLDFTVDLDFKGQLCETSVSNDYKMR

- IC50 [1]: 0.0053 µM
SMILES: CNCCN(C)Cc1ccccc1Sc1ccccc1Cl

- IC50 [2]: > 10 µM
- IC50 [3]: > 10 µM
- IC50 [4]: > 10 µM
SMILES: Cc1cc(C)cc([C@@H]2c3cc(C)ccc3NC(=O)CN2C(=O)c2ccc(Br)s2)c1

- IC50 [5]: 22.3 µM
SMILES: C=CC(C)(C)c1cc(/C=C/C(=O)c2ccc(O)cc2)c(OC)cc1O [LICOAGROCHACONE A]
